Results from patent publication US6855710B2, “Substituted indolines with an inhibitory effect on various kinases and complexes of CDKs” (Boehringer Ingelheim Pharma KG, priority 1998, dated 2005).

melting point | SMILES
177 to 179 °C | CS(=O)(=O)N(CCN1CCOCC1)c1cccc(N/C(=C2\C(=O)Nc3ccccc32)c2ccccc2)c1 [Example 325, (Z)-3-{1-[3-(N-(2-morpholinoethyl)-N-methylsulphonyl-amino)-phenylamino]-1-phenyl-methylidene}-2-indolinone]
207 °C | O=CN(CCN1CCOCC1)c1ccc(N/C(=C2\C(=O)Nc3ccc([N+](=O)[O-])cc32)c2ccccc2)cc1 [Example 333, (Z)-3-{1-[4-(N-(2-morpholinoethyl)-N-formyl-amino)-phenylamino]-1-phenyl-methylidene}-5-nitro-2-indolinone]
229 °C | CC(=O)N(CCN1CCOCC1)c1ccc(N/C(=C2\C(=O)Nc3ccc([N+](=O)[O-])cc32)c2ccccc2)cc1 [Example 334, (Z)-3-{1-[4-(N-(2-morpholinoethyl)-N-acetyl-amino)-phenylamino]-1-phenyl-methylidene}-5-nitro-2-indolinone]
232 °C | CCC(=O)N(CCN1CCOCC1)c1ccc(N/C(=C2\C(=O)Nc3ccc([N+](=O)[O-])cc32)c2ccccc2)cc1 [Example 335, (Z)-3-{1-[4-(N-(2-morpholinoethyl)-N-propionyl-amino)-phenylamino]-1-phenyl-methylidene}-5-nitro-2-indolinone]
254 °C | CC(C)C(=O)N(CCN1CCOCC1)c1ccc(N/C(=C2\C(=O)Nc3ccc([N+](=O)[O-])cc32)c2ccccc2)cc1 [Example 336, (Z)-3-{1-[4-(N-(2-morpholinoethyl)-N-isopropylcarbonyl-amino)-phenylamino]-1-phenyl-methylidene}-5-nitro-2-indolinone]
228 °C | CCCC(=O)N(CCN1CCOCC1)c1ccc(N/C(=C2\C(=O)Nc3ccc([N+](=O)[O-])cc32)c2ccccc2)cc1 [Example 337, (Z)-3-{1-[4-(N-(2-morpholinoethyl)-N-propylcarbonyl-amino)-phenylamino]-1-phenyl-methylidene}-5-nitro-2-indolinone]
246 to 248 °C | CN(C)CCN(C=O)c1ccc(N/C(=C2\C(=O)Nc3ccccc32)c2ccccc2)cc1 [Example 339, (Z)-3-{1-[4-(N-(2-dimethylaminoethyl)-N-formyl-amino)-phenylamino]-1-phenyl-methylidene}-2-indolinone]
257 °C | O=C1Nc2ccccc2/C1=C(/Nc1ccc(NCCN2CCOCC2)cc1)c1ccccc1 [Example 346, (Z)-3-{1-[4-(2-morpholinoethylamino)-phenylamino]-1-phenyl-methylidene}-2-indolinone]
218 °C | O=CN(CCN1CCOCC1)c1ccc(N/C(=C2\C(=O)Nc3ccccc32)c2ccccc2)cc1 [Example 347, (Z)-3-{1-[4-(N-(2-morpholinoethyl)-N-formyl-amino)-phenylamino]-1-phenyl-methylidene}-2-indolinone]
228 °C | CCC(=O)N(CCN1CCOCC1)c1ccc(N/C(=C2\C(=O)Nc3ccccc32)c2ccccc2)cc1 [Example 349, (Z)-3-{1-[4-(N-(2-morpholinoethyl)-N-propionyl-amino)-phenylamino]-1-phenyl-methylidene}-2-indolinone]
239 °C | CC(C)C(=O)N(CCN1CCOCC1)c1ccc(N/C(=C2\C(=O)Nc3ccccc32)c2ccccc2)cc1 [Example 350, (Z)-3-{1-[4-(N-(2-morpholinoethyl)-N-isopropylcarbonyl-amino)-phenylamino]-1-phenyl-methylidene}-2-indolinone]
219 °C | CCCC(=O)N(CCN1CCOCC1)c1ccc(N/C(=C2\C(=O)Nc3ccccc32)c2ccccc2)cc1 [Example 351, (Z)-3-{1-[4-(N-(2-morpholinoethyl)-N-propylcarbonyl-amino)-phenylamino]-1-phenyl-methylidene}-2-indolinone]

Second part, the compound before the results:

SMILES | melting point
CN(C)C(=O)CN(c1cccc(N/C(=C2\C(=O)Nc3ccccc32)c2ccccc2)c1)S(C)(=O)=O [Example 321, (Z)-3-{1-[3-(N-dimethylaminocarbonylmethyl-N-methylsulphonyl-amino)-phenylamino]-1-phenyl-methylidene}-2-indolinone] | 213 to 216 °C
CN(C)CCNC(=O)CN(c1cccc(N/C(=C2\C(=O)Nc3ccccc32)c2ccccc2)c1)S(C)(=O)=O [Example 322, (Z)-3-{1-[3-(N-(2-dimethylamino-ethylaminocarbonylmethyl)-N-methylsulphonyl-amino)-phenylamino]-1-phenyl-methylidene}-2-indolinone] | 179 to 181 °C
CN(C)CCN(C)C(=O)CN(c1cccc(N/C(=C2\C(=O)Nc3ccccc32)c2ccccc2)c1)S(C)(=O)=O [Example 323, (Z)-3-{1-[3-(N—((N-(2-dimethylaminoethyl)-N-methyl-amino)-carbonylmethyl)-N-methylsulphonyl-amino)-phenylamino]-1-phenyl-methylidene}-2-indolinone] | 197 to 199 °C
CN(C)CCN(c1cccc(N/C(=C2\C(=O)Nc3ccccc32)c2ccccc2)c1)S(C)(=O)=O [Example 324, (Z)-3-{1-[3-(N-(2-dimethylaminoethyl)-N-methylsulphonyl-amino)-phenylamino]-1-phenyl-methylidene}-2-indolinone] | 208 to 211 °C
CN(C)CCNc1ccc(N/C(=C2\C(=O)Nc3ccc([N+](=O)[O-])cc32)c2ccccc2)cc1 [Example 326, (Z)-3-{1-[4-(2-dimethylamino-ethylamino)-phenylamino]-1-phenyl-methylidene}-5-nitro-2-indolinone] | 227 to 229 °C
CN(C)CCN(C=O)c1ccc(N/C(=C2\C(=O)Nc3ccc([N+](=O)[O-])cc32)c2ccccc2)cc1 [Example 327, (Z)-3-{1-[4-(N-(2-dimethylaminoethyl)-N-formyl-amino)-phenylamino]-1-phenyl-methylidene}-5-nitro-2-indolinone] | 215 to 218 °C
CC(=O)N(CCN(C)C)c1ccc(N/C(=C2\C(=O)Nc3ccc([N+](=O)[O-])cc32)c2ccccc2)cc1 [Example 328, (Z)-3-{1-[4-(N-(2-dimethylaminoethyl)-N-acetyl-amino)-phenylamino]-1-phenyl-methylidene}-5-nitro-2-indolinone] | 228 to 230 °C
CCC(=O)N(CCN(C)C)c1ccc(N/C(=C2\C(=O)Nc3ccc([N+](=O)[O-])cc32)c2ccccc2)cc1 [Example 329, (Z)-3-{1-[4-(N-(2-dimethylaminoethyl)-N-propionyl-amino)-phenylamino]-1-phenyl-methylidene}-5-nitro-2-indolinone] | 263 to 265 °C
CC(C)C(=O)N(CCN(C)C)c1ccc(N/C(=C2\C(=O)Nc3ccc([N+](=O)[O-])cc32)c2ccccc2)cc1 [Example 330, (Z)-3-{1-[4-(N-(2-dimethylaminoethyl)-N-isopropylcarbonyl-amino)-phenylamino]-1-phenyl-methylidene}-5-nitro-2-indolinone] | 296 to 298 °C
CCCC(=O)N(CCN(C)C)c1ccc(N/C(=C2\C(=O)Nc3ccc([N+](=O)[O-])cc32)c2ccccc2)cc1 [Example 331, (Z)-3-{1-[4-(N-(2-dimethylaminoethyl)-N-propylcarbonyl-amino)-phenylamino]-1-phenyl-methylidene}-5-nitro-2-indolinone] | 275 to 277 °C
O=C1Nc2ccc([N+](=O)[O-])cc2/C1=C(/Nc1ccc(NCCN2CCOCC2)cc1)c1ccccc1 [Example 332, (Z)-3-{1-[4-(2-morpholinoethylamino)-phenylamino]-1-phenyl-methylidene}-5-nitro-2-indolinone] | 253 °C
CN(C)CCNc1ccc(N/C(=C2\C(=O)Nc3ccccc32)c2ccccc2)cc1 [Example 338, (Z)-3-{1-[4-(2-dimethylamino-ethylamino)-phenylamino]-1-phenyl-methylidene}-2-indolinone] | 258 to 260 °C
CC(=O)N(CCN(C)C)c1ccc(N/C(=C2\C(=O)Nc3ccccc32)c2ccccc2)cc1 [Example 340, (Z)-3-{1-[4-(N-(2-dimethylaminoethyl)-N-acetyl-amino)-phenylamino]-1-phenyl-methylidene}-2-indolinone] | 197 to 199 °C
CCC(=O)N(CCN(C)C)c1ccc(N/C(=C2\C(=O)Nc3ccccc32)c2ccccc2)cc1 [Example 341, (Z)-3-{1-[4-(N-(2-dimethylaminoethyl)-N-propionyl-amino)-phenylamino]-1-phenyl-methylidene}-2-indolinone] | 272 to 274 °C
CC(C)C(=O)N(CCN(C)C)c1ccc(N/C(=C2\C(=O)Nc3ccccc32)c2ccccc2)cc1 [Example 342, (Z)-3-{1-[4-(N-(2-dimethylaminoethyl)-N-isopropylcarbonyl-amino)-phenylamino]-1-phenyl-methylidene}-2-indolinone] | 280 to 282 °C
CCCC(=O)N(CCN(C)C)c1ccc(N/C(=C2\C(=O)Nc3ccccc32)c2ccccc2)cc1 [Example 343, (Z)-3-{1-[4-(N-(2-dimethylaminoethyl)-N-propylcarbonyl-amino)-phenylamino]-1-phenyl-methylidene}-2-indolinone] | 268 to 270 °C
CC(=O)N(CCCN(C)C)c1ccc(N/C(=C2\C(=O)Nc3ccccc32)c2ccccc2)cc1 [Example 344, (Z)-3-{1-[4-(N-(3-dimethylaminopropyl)-N-acetyl-amino)-phenylamino]-1-phenyl-methylidene}-2-indolinone] | 227 °C
CCOC(=O)CN(C(C)=O)c1ccc(N/C(=C2\C(=O)Nc3ccccc32)c2ccccc2)cc1 [Example 352, (Z)-3-{1-[4-(N-ethoxycarbonylmethyl-N-acetyl-amino)-phenylamino]-1-phenyl-methylidene}-2-indolinone] | 244 to 247 °C
CC(=O)N(CC(=O)O)c1ccc(N/C(=C2\C(=O)Nc3ccccc32)c2ccccc2)cc1 [Example 353, (Z)-3-{1-[4-(N-carboxymethyl-N-acetyl-amino)-phenylamino]-1-phenyl-methylidene}-2-indolinone] | 276 °C (dec.)
CNC(=O)CN(C(C)=O)c1ccc(N/C(=C2\C(=O)Nc3ccccc32)c2ccccc2)cc1 [Example 354, (Z)-3-{1-[4-(N-methylaminocarbonylmethyl-N-acetyl-amino)-phenylamino]-1-phenyl-methylidene}-2-indolinone] | 270 °C (dec.)
